Test results published in US12612387B2, “RAS inhibitors and methods of using the same” (Jazz Pharmaceuticals Ireland Limited, priority 2020, dated 2026).

Key:
K-RAS G12C = molecular target: T1, K-RAS G12C (Homo sapiens, UniProt P01116, G12C); experiment: Compound depletion assay, K-RAS G12C; format: binding; details: G12C protein 20 μM, compound 8 μM, 25° C.
T1 construct: His tag; purchased Stratech
Method: (§1) Compound Depletion Assay Method
(§2) Lyophilized human K-RAS (12 Cys) protein (His tag) and human K-RAS (12 Asp) protein (His tag) were purchased from Stratech and reconstituted at 30 μM in water. The protein concentration of K-RAS G12C and K-RAS G12D was adjusted to 20 μM in K-RAS Assay Buffer (20 mM HEPES pH 7.5, 150 mM NaCl, 1 mM MgCl2). A 49 μl aliquot of protein solution was transferred to 1.5 ml eppendorfs and incubated at room temperature for 10 minutes. A 1 μl aliquot of compound solution in DMSO was added to the protein solutions in the 1.5 ml eppendorfs to initiate the reaction, with a final assay compound concentration of 8 μM. Reactions were agitated at 25° C., 700 rpm. At each time point (0, 30, 180, 360, 1440 minutes), 10 μl of the reaction mixture was removed, added to 30 μl quench solution (0.3% formic acid, 75 nM propranolol in acetonitrile) to stop the reaction and stored at 4° C. Once all reactions were quenched, the samples were centrifuged at 16000 g for 10 minutes to pellet the protein and salts. A 10 μl aliquot of supernatant containing compound was diluted in 50:50 acetonitrile:H2O in a 96 well plate. The plates were heat sealed and the samples analysed by LC-MS/MS to determine the concentration of compound remaining in the samples. To determine the reaction progress, the compound signal was normalized to the internal standard signal (propranolol). The decrease in free compound concentration is shown as a percentage over time, with the […] at time zero fixed at one hundred percent. Compound is assumed to be completely depleted when no longer detectable with a double blank sample as reference.

K-RAS G12D = molecular target: T2, K-RAS G12D (Homo sapiens, UniProt P01116, G12D); experiment: Compound depletion assay, K-RAS G12D; format: binding; details: G12D protein 20 μM, compound 8 μM, 25° C.
T2 construct: His tag; purchased Stratech
T2 sequence (P01116 1-188 isoform P01116-2 G12D): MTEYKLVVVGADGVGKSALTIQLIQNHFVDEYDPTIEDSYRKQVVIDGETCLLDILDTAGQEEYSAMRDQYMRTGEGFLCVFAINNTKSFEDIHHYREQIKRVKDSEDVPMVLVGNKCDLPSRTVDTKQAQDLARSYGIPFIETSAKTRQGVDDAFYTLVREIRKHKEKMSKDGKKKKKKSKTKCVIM
Method: as §1, §2

T1 sequence (P01116 1-188 isoform P01116-2 G12C): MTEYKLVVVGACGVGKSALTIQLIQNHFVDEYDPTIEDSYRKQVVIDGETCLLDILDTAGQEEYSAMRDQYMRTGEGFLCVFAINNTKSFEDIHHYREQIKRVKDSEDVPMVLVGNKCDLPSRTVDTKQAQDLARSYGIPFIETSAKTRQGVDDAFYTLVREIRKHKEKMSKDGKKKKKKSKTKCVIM

| Compound | 3 hr Category (compound remaining at timepoint) (K-RAS G12C) | 24 hr Category (compound remaining at timepoint) (K-RAS G12C) | 3 hr Category (compound remaining at timepoint) (K-RAS G12D) | 24 hr Category (compound remaining at timepoint) (K-RAS G12D) | 30 min Category (compound remaining at timepoint) (K-RAS G12C) | 6 hr Category (compound remaining at timepoint) (K-RAS G12C) | 30 min Category (compound remaining at timepoint) (K-RAS G12D) | 6 hr Category (compound remaining at timepoint) (K-RAS G12D) |
| --- | --- | --- | --- | --- | --- | --- | --- | --- |
| C=CC(=O)N1CCN(c2cc(C(=O)Nc3cccc4ccccc34)nc(OC[C@@H]3CCCN3C)n2)CC1 [Example 01, 2-[[(2S)-1-methylpyrrolidin-2-yl]methoxy]-N-(1-naphthyl)-6-(4-prop-2-enoylpiperazin-1-yl)pyrimidine-4-carboxamide] | A (≥70% compound remaining at timepoint) | B (30%-70% compound remaining at timepoint) | A (≥70% compound remaining at timepoint) | A (≥70% compound remaining at timepoint) | – | – | – | – |
| C=CC(=O)N1CCN(c2cc(C(=O)Nc3cccc4ccccc34)nc(-c3cnn(C)c3)n2)CC1 [Example 10, 2-(1-methylpyrazol-4-yl)-N-(1-naphthyl)-6-(4-prop-2-enoylpiperazin-1-yl)pyrimidine-4-carboxamide] | A (≥70% compound remaining at timepoint) | A (≥70% compound remaining at timepoint) | A (≥70% compound remaining at timepoint) | A (≥70% compound remaining at timepoint) | – | – | – | – |
| C=CC(=O)N1CCN(c2cc(C(=O)Nc3c(C)ccc4ncccc34)nc(OC[C@@H]3CCCN3C)n2)CC1 [Example 19, 2-[[(2S)-1-methylpyrrolidin-2-yl]methoxy]-N-(6-methyl-5-quinolyl)-6-(4-prop-2-enoylpiperazin-1-yl)pyrimidine-4-carboxamide] | A (≥70% compound remaining at timepoint) | A (≥70% compound remaining at timepoint) | A (≥70% compound remaining at timepoint) | A (≥70% compound remaining at timepoint) | – | – | – | – |
| C=CC(=O)N1CCN(c2cc(C(=O)Nc3cccc(O)c3)nc(OC[C@@H]3CCCN3C)n2)CC1 [Example 04, N-(3-hydroxyphenyl)-2-[[(2S)-1-methylpyrrolidin-2-yl]methoxy]-6-(4-prop-2-enoylpiperazin-1-yl)pyrimidine-4-carboxamide] | A (≥70% compound remaining at timepoint) | A (≥70% compound remaining at timepoint) | A (≥70% compound remaining at timepoint) | A (≥70% compound remaining at timepoint) | – | – | – | – |
| C=CC(=O)N1CCN(c2cc(C(=O)NCc3ccccc3)nc(OC[C@@H]3CCCN3C)n2)CC1 [Example 14, N-benzyl-2-[[(2S)-1-methylpyrrolidin-2-yl]methoxy]-6-(4-prop-2-enoylpiperazin-1-yl)pyrimidine-4-carboxamide] | A (≥70% compound remaining at timepoint) | A (≥70% compound remaining at timepoint) | A (≥70% compound remaining at timepoint) | A (≥70% compound remaining at timepoint) | – | – | – | – |
| C=CC(=O)N1CCN(c2cc(C(=O)Nc3cc(O)cc4ccccc34)nc(-c3ccccn3)n2)C[C@@H]1CC#N [Example 31, 6-[(3S)-3-(cyanomethyl)-4-prop-2-enoyl-piperazin-1-yl]-N-(3-hydroxy-1-naphthyl)-2-(2-pyridyl)pyrimidine-4-carboxamide] | B (30%-70% compound remaining at timepoint) | – | A (≥70% compound remaining at timepoint) | – | A (≥70% compound remaining at timepoint) | B (30%-70% compound remaining at timepoint) | A (≥70% compound remaining at timepoint) | A (≥70% compound remaining at timepoint) |
| C=CC(=O)N1CCN(c2cc(C(=O)Nc3cccc4ccccc34)nc(-c3ccnn3C)n2)CC1 [Example 11, 2-(2-methylpyrazol-3-yl)-N-(1-naphthyl)-6-(4-prop-2-enoylpiperazin-1-yl)pyrimidine-4-carboxamide] | A (≥70% compound remaining at timepoint) | A (≥70% compound remaining at timepoint) | A (≥70% compound remaining at timepoint) | A (≥70% compound remaining at timepoint) | A (≥70% compound remaining at timepoint) | – | – | – |
| C=CC(=O)N1CCN(c2cc(C(=O)Nc3cccc4ccccc34)nc(N(C)CCN(C)C)n2)CC1 [Example 21, 2-[2-(dimethylamino)ethyl-methyl-amino]-N-(1-naphthyl)-6-(4-prop-2-enoylpiperazin-1-yl)pyrimidine-4-carboxamide] | A (≥70% compound remaining at timepoint) | A (≥70% compound remaining at timepoint) | A (≥70% compound remaining at timepoint) | A (≥70% compound remaining at timepoint) | – | – | – | – |
| C=CC(=O)N1CCN(c2cc(C(=O)Nc3cc(O)cc4ccccc34)nc(-c3ccncc3)n2)C[C@@H]1CC#N [Example 26, 6-[(3S)-3-(cyanomethyl)-4-prop-2-enoyl-piperazin-1-yl]-N-(3-hydroxy-1-naphthyl)-2-(4-pyridyl)pyrimidine-4-carboxamide] | A (≥70% compound remaining at timepoint) | – | A (≥70% compound remaining at timepoint) | – | A (≥70% compound remaining at timepoint) | A (≥70% compound remaining at timepoint) | A (≥70% compound remaining at timepoint) | A (≥70% compound remaining at timepoint) |
| C=CC(=O)N1CCN(c2cc(C(=O)Nc3cc(O)cc4ccccc34)nc(NCCC3CCCN3C)n2)C[C@@H]1CC#N (stereo partly drawn) [Example 30, 6-[(3S)-3-(cyanomethyl)-4-prop-2-enoyl-piperazin-1-yl]-N-(3-hydroxy-1-naphthyl)-2-[2-(1-methylpyrrolidin-2-yl)ethylamino]pyrimidine-4-carboxamide] | C (≤30% compound remaining at timepoint) | – | A (≥70% compound remaining at timepoint) | – | B (30%-70% compound remaining at timepoint) | C (≤30% compound remaining at timepoint) | A (≥70% compound remaining at timepoint) | A (≥70% compound remaining at timepoint) |
| C=CC(=O)N1CCN(c2cc(C(=O)Nc3cc(O)cc4ccccc34)nc(OCc3cnn(C)c3)n2)C[C@@H]1CC#N [Example 42, 6-[(3S)-3-(cyanomethyl)-4-prop-2-enoyl-piperazin-1-yl]-N-(3-hydroxy-1-naphthyl)-2-[(1-methylpyrazol-4-yl)methoxy]pyrimidine-4-carboxamide] | C (≤30% compound remaining at timepoint) | – | A (≥70% compound remaining at timepoint) | – | B (30%-70% compound remaining at timepoint) | C (≤30% compound remaining at timepoint) | A (≥70% compound remaining at timepoint) | A (≥70% compound remaining at timepoint) |
| C=CC(=O)N1CCN(c2cc(C(=O)Nc3cc(O)cc4ccccc34)nc(-c3ccccc3)n2)C[C@@H]1CC#N [Example 24, 6-[(3S)-3-(cyanomethyl)-4-prop-2-enoyl-piperazin-1-yl]-N-(3-hydroxy-1-naphthyl)-2-phenyl-pyrimidine-4-carboxamide] | A (≥70% compound remaining at timepoint) | – | A (≥70% compound remaining at timepoint) | – | A (≥70% compound remaining at timepoint) | A (≥70% compound remaining at timepoint) | A (≥70% compound remaining at timepoint) | A (≥70% compound remaining at timepoint) |
